Reference: patent publication US10189788B2, “Substituted N,2-diarylquinoline-4-carboxamides and the use thereof as anti-inflammatory agents” (BAYER PHARMA AKTIENGESELLSCHAFT, priority 2014, dated 2019)

Legend:
Human FP Receptor [1] = biological target: T1, Human FP Receptor (Homo sapiens (Human), UniProt P43088); experiment: In vitro test of inhibition of human FP receptor activity, variant B-1B (PGF2α-induced calcium flux in recombinant FP-expressing CHO cells with GCaMP6); type: cell-based; conditions: recombinant FP-expressing CHO cells with GCaMP6, calcium flux induced by 3 nM PGF2α, some mean values from multiple determinations
T1 sequence (P43088 whole entry): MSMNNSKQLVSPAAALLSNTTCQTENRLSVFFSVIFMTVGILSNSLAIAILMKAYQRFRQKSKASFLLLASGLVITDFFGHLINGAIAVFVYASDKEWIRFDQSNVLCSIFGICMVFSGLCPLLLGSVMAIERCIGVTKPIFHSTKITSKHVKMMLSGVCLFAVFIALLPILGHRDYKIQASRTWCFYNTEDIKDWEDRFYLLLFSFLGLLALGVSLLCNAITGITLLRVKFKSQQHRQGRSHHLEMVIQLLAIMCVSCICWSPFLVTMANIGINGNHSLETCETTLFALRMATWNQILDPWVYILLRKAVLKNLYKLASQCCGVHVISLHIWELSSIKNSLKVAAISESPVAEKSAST
From the text: 470 nm/em. 525 nm in a fluorescence measuring instrument (FLIPR Tetra®, MolecularDevices) for 120 seconds.

Human FP Receptor [2] = biological target: T1, Human FP Receptor; experiment: In vitro test of inhibition of human FP receptor activity, variant B-1A (PGF2α-induced calcium flux in FP-expressing CHEM1 cells); type: cell-based; conditions: calcium flux induced by 3 nM PGF2α, Fluo-8, some mean values from multiple determinations
From the text: • BSA bovine serum albumin • CRTH2 chemoattractant receptor-homologous molecule expressed on T helper type 2 cells • DMEM Dulbecco's modified Eagle's medium • DMSO dimethyl sulfoxide • DP PGD2 receptor • EC50 half-maximum effective concentration • em. emission • EP PGE2 receptor • ex. excitation • FCS fetal calf serum • FP PGF2α receptor • HEPES 2-[4-(2-hydroxyethyl)piperazin-1-yl]ethanesulfonic acid • IC50 half-maximum inhibitory concentration • IP PGI2 receptor • MES 2-(N-morpholino)ethanesulfonic acid • Pen/Strep penicillin/streptomycin • PGD2 prostaglandin D2 • PGE2 prostaglandin E2 • PGF2α prostaglandin F2α • PGI2 prostaglandin […] • TC tissue culture • TP thromboxane A2 receptor • Tris tris(hydroxymethyl)aminomethane • v/v volume to volume ratio (of a solution) • w/w weight to weight ratio (of a solution) B-1.

[3] = unstable molecule, rearranged enzymatically in lung, liver and kidney to 15-ketodihydro-PGF2α; cited from earlier work
[4] = eliminated renally; cited from earlier work

| Compound | IC50 (Human FP Receptor [1]) [nM] | IC50 (Human FP Receptor [2]) [nM] | t1/2 [3] [min] | half-life [4] |
| --- | --- | --- | --- | --- |
| O=C(O)c1ccc(NC(=O)c2c(F)c(-c3ccccc3)nc3ccc(Br)cc23)c(F)c1 [Example 73, 4-{[(6-Bromo-3-fluoro-2-phenylquinolin-4-yl)carbonyl]amino}-3-fluorobenzoic acid] | 98 | – | – | – |
| Cc1c(-c2ccccc2)nc2ccc(Br)cc2c1C(=O)Nc1ccc(C(=O)O)cc1F [Example 7, 4-{[(6-Bromo-3-methyl-2-phenylquinolin-4-yl)carbonyl]amino}-3-fluorobenzoic acid] | 34 | 20 | – | – |
| Cc1c(-c2ccccc2)nc2ccc(Br)cc2c1C(=O)Nc1ccc(C(=O)O)c(F)c1F [Example 65, 4-{[(6-Bromo-3-methyl-2-phenylquinolin-4-yl)carbonyl]amino}-2,3-difluorobenzoic acid] | 60 | 105 | – | – |
| Prostaglandin F2alpha [PGF2α] | – | – | < 1 | – |
| Bleomycin | – | – | – | about 3 hours |
| COCSc1cc(C(=O)O)ccc1NC(=O)c1c(C)c(-c2ccccc2)nc2ccc(Br)cc12 [Example 52, 4-{[(6-Bromo-3-methyl-2-phenylquinolin-4-yl)carbonyl]amino}-3-[(methoxymethyl)sulfanyl]benzoic acid] | 6 | 17 | – | – |
| Cc1c(-c2ccccc2)nc2ccc(Br)cc2c1C(=O)Nc1ccc(C(=O)O)cc1F [Example 50, Sodium 4-{[(6-bromo-3-methyl-2-phenylquinolin-4-yl)carbonyl]amino}-3-fluorobenzoate] | 44 | 37 | – | – |
| Cc1c(-c2ccccc2)nc2ccc(Br)cc2c1C(=O)Nc1ccc(C(=O)NS(=O)(=O)N(C)C)cc1F [Example 68, 6-Bromo-N-{4-[(dimethylsulfamoyl)carbamoyl]-2-fluorophenyl}-3-methyl-2-phenylquinoline-4-carboxamide] | 182 | 318 | – | – |
| Cc1c(-c2ccccc2)nc2ccc(Br)cc2c1C(=O)Nc1ccc(C(=O)O)cc1F [Example 69, Potassium 4-{[(6-bromo-3-methyl-2-phenylquinolin-4-yl)carbonyl]amino}-3-fluorobenzoate] | 59 | 104 | – | – |
| Cc1c(-c2ccccc2)nc2ccc(Br)cc2c1C(=O)Nc1ccc(C(=O)NS(=O)(=O)C(F)(F)F)cc1F [Example 67, 6-Bromo-N-(2-fluoro-4-{[(trifluoromethyl)sulfonyl]carbamoyl}phenyl)-3-methyl-2-phenylquinoline-4-carboxamide] | 134 | 239 | – | – |
| CCS(=O)(=O)c1cc(C(=O)O)c(OC)cc1NC(=O)c1c(C)c(-c2ccccc2)nc2ccc(Br)cc12 [Example 27, 4-{[(6-Bromo-3-methyl-2-phenylquinolin-4-yl)carbonyl]amino}-5-(ethylsulfonyl)-2-methoxybenzoic acid] | – | 97 | – | – |
| CCc1ccc2nc(-c3ccccc3)c(C)c(C(=O)Nc3ccc(C(=O)O)cc3F)c2c1 [Example 32, 4-{[(6-Ethyl-3-methyl-2-phenylquinolin-4-yl)carbonyl]amino}-3-fluorobenzoic acid] | – | 245 | – | – |
| Cc1cc(C(=O)O)ccc1NC(=O)c1c(C)c(-c2ccccc2)nc2ccc(Br)cc12 [Example 14, 4-{[(6-Bromo-3-methyl-2-phenylquinolin-4-yl)carbonyl]amino}-3-methylbenzoic acid] | – | 617 | – | – |
| Cc1c(-c2ccccc2)nc2ccc(Br)cc2c1C(=O)Nc1ccc(C(=O)O)cc1C#N [Example 16, 4-{[(6-Bromo-3-methyl-2-phenylquinolin-4-yl)carbonyl]amino}-3-cyanobenzoic acid] | – | 278 | – | – |
| Cc1c(-c2ccccc2)nc2ccc(Br)cc2c1C(=O)Nc1ccc(C(=O)O)cc1OC(F)(F)F [Example 23, 4-{[(6-Bromo-3-methyl-2-phenylquinolin-4-yl)carbonyl]amino}-3-(trifluoromethoxy)benzoic acid] | – | 57 | – | – |
| Cc1c(-c2ccccc2)nc2ccc(Br)cc2c1C(=O)Nc1cc(F)c(C(=O)O)cc1F [Example 66, 4-{[(6-Bromo-3-methyl-2-phenylquinolin-4-yl)carbonyl]amino}-2,5-difluorobenzoic acid] | – | 282 | – | – |
| Cc1c(-c2ccccc2)nc2ccc(Br)cc2c1C(=O)Nc1ccc(C(=O)O)cc1S(C)(=O)=O [Example 26, 4-{[(6-Bromo-3-methyl-2-phenylquinolin-4-yl)carbonyl]amino}-3-(methylsulfonyl)benzoic acid] | – | 86 | – | – |
| Cc1c(-c2ccccc2)nc2ccc(C(C)(C)C)cc2c1C(=O)Nc1ccc(C(=O)O)cc1F [Example 61, 4-{[(6-tert-Butyl-3-methyl-2-phenylquinolin-4-yl)carbonyl]amino}-3-fluorobenzoic acid] | 79 | 131 | – | – |
| Cc1c(-c2ccccc2)nc2ccc(Br)cc2c1C(=O)Nc1cnc(C(=O)O)nc1 [Example 4, 5-{[(6-Bromo-3-methyl-2-phenylquinolin-4-yl)carbonyl]amino}pyrimidine-2-carboxylic acid] | – | 880 | – | – |
| O=C(O)c1ccc(NC(=O)c2c(C(F)(F)F)c(-c3ccccc3)nc3ccc(Br)cc23)c(F)c1 [Example 57, 4-({[6-Bromo-2-phenyl-3-(trifluoromethyl)quinolin-4-yl]carbonyl}amino)-3-fluorobenzoic acid] | – | 437 | – | – |
